Experimental data taken from patent US20170305857A1, “N-ACYLPIPERIDINE ETHER TROPOMYOSIN-RELATED KINASE INHIBITORS” (Pfizer Limited, priority 2014, published 2017).

Biological target: T1, recombinant His-tagged cytoplasmic domains of TRKA receptor (NTRK1, PV3144, aa 441-796) (Homo sapiens, UniProt P04629)
T1 construct: aa 441-796; His; purchased Invitrogen PV3144
Test: Isolated TRK enzyme assay (HTRF KinEASE-TK, PV3144 TrkA enzyme assay)
Type: biochemical
Settings: 4 nM enzyme, 40 uM ATP, 35 min, arithmetic mean where more than one reading
Outline: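 Enzyme and ATP were preincubated with compound for 20 min at room temperature in buffer with 10 mM MgCl and 2 mM DTT. TK-substrate-Biotin was then added (1 uM final) and the reaction run for an enzyme-specific optimized time. Phosphorylation was read by HTRF, and IC50 values came from sigmoid fits of percent inhibition normalized to plate controls, averaged over replicate readings.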

T1 sequence (P04629 441-796): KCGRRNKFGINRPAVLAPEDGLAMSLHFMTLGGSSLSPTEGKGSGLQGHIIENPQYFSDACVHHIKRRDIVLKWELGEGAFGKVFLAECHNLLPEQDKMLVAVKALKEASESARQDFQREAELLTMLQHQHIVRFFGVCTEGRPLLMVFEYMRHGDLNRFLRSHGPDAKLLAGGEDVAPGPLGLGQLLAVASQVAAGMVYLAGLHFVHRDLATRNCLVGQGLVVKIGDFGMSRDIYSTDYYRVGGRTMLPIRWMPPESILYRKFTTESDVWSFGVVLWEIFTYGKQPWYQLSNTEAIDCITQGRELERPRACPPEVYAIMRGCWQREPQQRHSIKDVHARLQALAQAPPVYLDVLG

| IC50 | Structure (SMILES) |
| --- | --- |
| 7.24 nM | Cn1cc(-c2cc(C(N)=O)c(O[C@@H]3CCN(C(=O)Cc4ccc(OC(F)(F)F)cc4)C[C@@H]3F)nn2)cn1 [Example 157, 3-{[(3S,4R)-3-fluoro-1-{[4-(trifluoromethoxy)phenyl]acetyl}piperidin-4-yl]oxy}-6-(1-methyl-1H-pyrazol-4-yl)pyridazine-4-carboxamide] |
| 3.7 nM | Cn1cnc(-c2ccc(OC3CCN(C(=O)Cc4ccc(OC(F)(F)F)cc4)CC3(C)C)c(C(N)=O)c2)c1 (racemic) [Example 49, Racemic 2-((3,3-dimethyl-1-(2-(4-(trifluoromethoxy)phenyl)acetyl)piperidin-4-yl)oxy)-5-(1-methyl-1H-imidazol-4-yl)benzamide] |
| 3.5 nM | CC(C)(N)c1ccc(-c2ccc(OC3CCN(C(=O)Cc4ccc(OC(F)(F)F)cc4)CC3)c(C(N)=O)c2)cc1 [Example 65, 4'-(2-aminopropan-2-yl)-4-[(1-{[4-(trifluoromethoxy)phenyl]acetyl}piperidin-4-yl)oxy]biphenyl-3-carboxamide] |
| 8.5 nM | NC(=O)c1cc(-c2nccs2)ccc1OC1CCN(C(=O)Cc2ccc(OC(F)(F)F)cc2)CC1 [Example 100, 5-(1,3-thiazol-2-yl)-2-[(1-{[4-(trifluoromethoxy)phenyl]acetyl}piperidin-4-yl)oxy]benzamide] |
| 4.3 nM | Cn1cnc(-c2cnc(O[C@@H]3CCN(C(=O)Cc4ccc(OC5CC5)cn4)C[C@@H]3F)c(C(N)=O)c2)c1 [Example 29, 2-{[(3S,4R)-1-{[5-(cyclopropyloxy)pyridin-2-yl]acetyl}-3-fluoropiperidin-4-yl]oxy}-5-(1-methyl-1H-imidazol-4-yl)pyridine-3-carboxamide] |
| 8.46 nM | NC(=O)c1cc(-n2cc(CO)cn2)cnc1O[C@@H]1CCN(C(=O)Cc2ccc(OC(F)(F)F)cc2)C[C@@H]1F [Example 160, 2-{[(3S,4R)-3-fluoro-1-{[4-(trifluoromethoxy)phenyl]acetyl}piperidin-4-yl]oxy}-5-[4-(hydroxymethyl)-1H-pyrazol-1-yl]pyridine-3-carboxamide] |
| 3.1 nM | Cn1cnc(-c2ccc(O[C@H]3CCN(C(=O)Cc4ccc(OC5CC5)cc4)C[C@@H]3F)c(C(N)=O)c2)c1 [Example 42, 2-{[(3S,4S)-1-{[4-(cyclopropyloxy)phenyl]acetyl}-3-fluoropiperidin-4-yl]oxy}-5-(1-methyl-1H-imidazol-4-yl)benzamide] |
| 2.3 nM | CS(=O)(=O)Cn1cc(-c2cnc(O[C@@H]3CCN(C(=O)Cc4ccc(OC5CC5)cc4)C[C@@H]3F)c(C(N)=O)c2)cn1 [Example 28, 2-{[(3S,4R)-1-{[4-(cyclopropyloxy)phenyl]acetyl}-3-fluoropiperidin-4-yl]oxy}-5-{1-[(methylsulfonyl)methyl]-1H-pyrazol-4-yl}pyridine-3-carboxamide] |
| 11.8 nM | NC(=O)c1cc(-c2cn[nH]c2)ncc1OC1CCN(C(=O)Cc2ccc(OC(F)(F)F)c(F)c2)CC1 [Example 169, 5-[(1-{[3-fluoro-4-(trifluoromethoxy)phenyl]acetyl}piperidin-4-yl)oxy]-2-(1H-pyrazol-4-yl)pyridine-4-carboxamide] |
| 8.8 nM | CC(N)c1ccc(-c2cnc(OC3CCN(C(=O)Cc4ccc(OC(F)(F)F)cc4)CC3)c(C(N)=O)c2)cc1 (racemic) [Example 94, Racemic 5-[4-(1-aminoethyl)phenyl]-2-[(1-{[4-(trifluoromethoxy)phenyl]acetyl}piperidin-4-yl)oxy]pyridine-3-carboxamide] |
| 0.9 nM | NC(=O)c1cc(-c2cn[nH]c2)ccc1O[C@@H]1CCN(C(=O)Cc2ccc(OC(F)(F)F)cc2)C[C@@H]1F [Example 73, 2-{[(3S,4R)-3-fluoro-1-{[4-(trifluoromethoxy)phenyl]acetyl}piperidin-4-yl]oxy}-5-(1H-pyrazol-4-yl)benzamide] |
| 6.9 nM | Cc1n[nH]c(C)c1-c1cnc(O[C@@H]2CCN(C(=O)Cc3ccc(OC4CC4)cn3)C[C@@H]2F)c(C(N)=O)c1 [Example 79, 2-{[(3S,4R)-1-{[5-(cyclopropyloxy)pyridin-2-yl]acetyl}-3-fluoropiperidin-4-yl]oxy}-5-(3,5-dimethyl-1H-pyrazol-4-yl)pyridine-3-carboxamide] |
| 4.4 nM | NC(=O)c1cc(-c2cn(CCO)cn2)ccc1OC1CCN(C(=O)Cc2ccc(OC(F)(F)F)cc2)CC1 [Example 115, 5-[1-(2-hydroxyethyl)-1H-imidazol-4-yl]-2-[(1-{[4-(trifluoromethoxy)phenyl]acetyl}piperidin-4-yl)oxy]benzamide] |
| 2.45 nM | Cn1cc(-c2cnc(O[C@@H]3CCN(C(=O)Cc4ccc(OC(F)(F)F)cc4)C[C@@H]3F)c(C(N)=O)c2)nn1 [Example 155, 2-[((3S,4R)-3-fluoro-1-{[4-(trifluoromethoxy)phenyl]acetyl}piperidin-4-yl)oxy]-5-(1-methyl-1H-1,2,3-triazol-4-yl)pyridine-3-carboxamide] |
| 6.1 nM | CC1CC(Oc2ccc(-c3cn(C)cn3)cc2C(N)=O)CCN1C(=O)Cc1ccc(OC(F)(F)F)cc1 (racemic) [Example 51, Racemic 2-((2-methyl-1-(2-(4-(trifluoromethoxy)phenyl)acetyl)piperidin-4-yl)oxy)-5-(1-methyl-1H-imidazol-4-yl)benzamide] |
| 12.6 nM | Cc1nnc(-c2ccc(OC3CCN(C(=O)Cc4ccc(OC(F)(F)F)cc4)CC3)c(C(N)=O)c2)s1 [Example 147, 5-(5-methyl-1,3,4-thiadiazol-2-yl)-2-[(1-{[4-(trifluoromethoxy)phenyl]acetyl}piperidin-4-yl)oxy]benzamide] |
| 1.2 nM | Cn1cnc(-c2ccc(O[C@@H]3CCN(C(=O)Cc4ccc(OC(F)(F)F)cc4)C[C@H]3F)c(C(N)=O)c2)c1 [Example 53, 2-(((3R,4R)-3-fluoro-1-(2-(4-(trifluoromethoxy)phenyl)acetyl)piperidin-4-yl)oxy)-5-(1-methyl-1H-imidazol-4-yl)benzamide] |
| 10 nM | Cc1n[nH]c(C)c1-c1cnc(OC2CCN(C(=O)Cc3ccc(OC(F)(F)F)cc3)CC2)c(C(N)=O)c1 [Example 59, 5-(3,5-dimethyl-1H-pyrazol-4-yl)-2-[(1-{[4-(trifluoromethoxy)phenyl]acetyl}piperidin-4-yl)oxy]pyridine-3-carboxamide] |
| 2.8 nM | C[C@H](N)c1ccc(-c2ccc(OC3CCN(C(=O)Cc4ccc(OC(F)(F)F)cc4)CC3)c(C(N)=O)c2)cc1 [Example 66, 4'-[(1S)-1-aminoethyl]-4-[(1-{[4-(trifluoromethoxy)phenyl]acetyl}piperidin-4-yl)oxy]biphenyl-3-carboxamide] |
| 10.1 nM | Cc1n[nH]c(C)c1-c1ccc(OC2CCN(C(=O)Cc3ccc(OC(F)(F)F)cc3)CC2)c(C(N)=O)c1 [Example 102, 5-(3,5-dimethyl-1H-pyrazol-4-yl)-2-[(1-{[4-(trifluoromethoxy)phenyl]acetyl}piperidin-4-yl)oxy]benzamide] |
| 7.4 nM | Cc1nn(C[C@H](O)CO)c(C)c1-c1ccc(OC2CCN(C(=O)Cc3ccc(OC(F)(F)F)cc3)CC2)c(C(N)=O)c1 [Example 124] |
| 2.5 nM | NC(=O)c1cc(-c2c[nH]cn2)cnc1O[C@@H]1CCN(C(=O)Cc2ccc(OC(F)(F)F)cc2)C[C@@H]1F [Example 81, 2-{[(3S,4R)-3-fluoro-1-{[4-(trifluoromethoxy)phenyl]acetyl}piperidin-4-yl]oxy}-5-(1H-imidazol-4-yl)pyridine-3-carboxamide] |
